The test system of data set [1] is HCC tumors. Particulars: cited from earlier work.
Data set [2] concerns RPE-hTERT Flp-In cells. Description: FQI34/FQI1 comparison, mitotic defects in RPE-hTERT Flp-In cells. It is filed as cell-based. Particulars: one hour treatment; FIG. 33. On the procedure:
RPE-hTERT Flp-In cells were incubated in serum-free DMEM:F12 media for 24 hours to synchronize the cells in G0/G1. Cells were stimulated to reenter the cell cycle with DMEM:F12 media containing 10% Fetal Bovine Serum. After 24 hours, the cells were treated with DMSO (vehicle), FQI1 (2.5 μM or 5 μM), or FQI34 (250 nM or 500 nM) for one hour. The cells were washed twice with 1×Phosphate-buffered Saline and fixed with PHEM (3.7% formaldehyde in 100 mM PIPES at pH 6.8, 10 mM EGTA, 1 mM magnesium chloride, and 0.2% Triton X-100) for 10 minutes at room temperature. The fixed cells were stained for α-tubulin using a mouse anti-α-tubulin antibody (Fisher #62204). Secondary antibodies were: DMSO/FQI1 samples—goat anti-mouse IgG conjugated to Alexa 546 (Thermo Fisher #A11003); FQI34 samples—goat anti-mouse IgG conjugated to Texas Red (Fisher #T-862). DNA was stained with Hoechst 33342. Cells were imaged using a Nikon NiE using the 40× objective and images were captured using a DS-Qi1 Mc 12 bit camera. Scale bars and merged images were generated using Fiji software.

For data set [3], the target named is T1, tubulin (Sus scrofa, UniProt P02550+P02554).
T1 construct: purchased Cytoskeleton
T1 sequence (P02550 whole entry): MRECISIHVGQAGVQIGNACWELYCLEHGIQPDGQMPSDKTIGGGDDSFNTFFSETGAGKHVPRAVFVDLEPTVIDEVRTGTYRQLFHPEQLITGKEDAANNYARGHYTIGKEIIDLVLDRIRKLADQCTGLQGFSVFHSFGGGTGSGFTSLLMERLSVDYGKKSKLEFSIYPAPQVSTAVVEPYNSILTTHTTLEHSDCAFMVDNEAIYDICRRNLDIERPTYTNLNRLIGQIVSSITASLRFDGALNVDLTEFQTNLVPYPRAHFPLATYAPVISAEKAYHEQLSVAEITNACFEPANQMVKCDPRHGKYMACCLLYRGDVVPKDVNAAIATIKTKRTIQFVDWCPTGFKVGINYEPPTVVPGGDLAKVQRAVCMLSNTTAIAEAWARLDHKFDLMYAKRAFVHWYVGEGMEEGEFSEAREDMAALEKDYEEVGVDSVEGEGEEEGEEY
T1 sequence (P02554 whole entry): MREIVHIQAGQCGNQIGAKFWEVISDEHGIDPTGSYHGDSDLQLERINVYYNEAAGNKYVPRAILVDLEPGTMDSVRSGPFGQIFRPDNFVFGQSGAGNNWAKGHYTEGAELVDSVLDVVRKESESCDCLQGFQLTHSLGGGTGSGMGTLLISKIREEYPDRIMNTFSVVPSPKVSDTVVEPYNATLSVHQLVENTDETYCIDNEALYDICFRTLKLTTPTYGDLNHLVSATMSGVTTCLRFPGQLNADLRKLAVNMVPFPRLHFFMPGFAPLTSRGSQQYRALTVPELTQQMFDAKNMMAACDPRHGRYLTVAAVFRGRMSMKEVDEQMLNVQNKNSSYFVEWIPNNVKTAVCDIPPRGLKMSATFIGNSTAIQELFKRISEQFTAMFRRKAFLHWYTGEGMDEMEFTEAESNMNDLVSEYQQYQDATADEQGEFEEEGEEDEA
The data set is described as follows: Tubulin polymerization assay (Cytoskeleton kit). It is filed as biochemical. Particulars: FIG. 4C. How it is done:
Quantitative determination of tubulin polymerization in vitro was carried out using the in vitro polymerization assay kits from either Millipore (17-10194) or Cytoskeleton (FQI1 assay only) according to the manufacturer's conditions. For the Millipopre kit, thawed tubulin was mixed with purified His-LSF, His-SET8 proteins or FQI1 in 70 μL final volumes of 1×PB-GTP solutions, and the 96-well plate was transferred to the pre-warmed (37° C.) SpectraMax M5 Microplate Reader to read UV-Visible Absorbance. Tubulin polymerization was followed by measuring the turbidity variation (light scattering) every 1 min at 350 nm for 1 hr.

Data set [4] has as its system synchronized HeLa cells. The data set is described as follows: Mitotic defects in synchronized HeLa cells. The format is cell-based, human. On the procedure:
FIG. 8B is an image showing DAPI staining of synchronized cells, treated as indicated in panel FIG. 8A and analyzed at 20× magnification. Samples were collected at 0, 3, 6, and 19 hours post release from a G1/S block in presence of DMSO or FQI1. Insets represent individual cells in more detail. Arrows represent cells in metaphase or prometaphase, respectively, at the 6 hour time point. FIG. 8C is a bar graph showing quantification from 75-100 total cells analyzed by DNA and α-tubulin morphologies, indicating cells containing multi-asters, at 9 hours post release from a G1/S block. Data are representative of 2 experiments. FIG. 8D is a graph showing that the mitotic arrest mediated by limited FQI1 treatment of synchronized cells is reversible. Synchronized cells were released in the presence of 5 μM of FQI1 from a G1/S block. Ten hours after the release, the cells were washed and then either incubated with media alone or re-incubated with media in the presence of 5 μM FQI1. Samples were collected 24 hours post release. Fixed cells were stained with propidium iodide to analyze DNA content. […]

The test system of data set [5] is tubulin methylation by SET8. Description: In vitro methylation assay, tubulin methylation by SET8. The format is biochemical, porcine. Particulars: with 862 nM LSF (FIG. 9B). On the procedure: (§1) One μg of recombinant GST-SET8 (in 50% glycerol) and 2 μg of the purified tubulin (MP-Bioscience) were incubated with radioactively labeled [3H] AdoMet at room temperature for overnight. As indicated, recombinant His-LSF protein or FQI1 inhibitor were added to the reaction. Samples were separated by electrophoresis through a 10% Tricine Gel (Invitrogen) and the gel was stained with Coomassie Brilliant Blue and incubated with EN3HANCE (PerkinElmer) solution. The gel was dried and exposed to autoradiography film for 1 week. Two […] of each peptide and 2 μg of purified SET8 or full-length SETD2 (Active Motif) were incubated with radioactively labeled [3H] AdoMet at room temperature overnight. Samples were spotted onto P81 filters (Whatman 3698325) and the filter were washed 3 times with 0.3 M ammonium bicarbonate. The ratio of incorporated [^3H]CH3 was determined using liquid scintillation counting.

Data set [6] concerns the target T2, tubulin methylation by SET8 (Sus scrofa, UniProt M3V851).
T2 construct: consistent with the presence of LSF in the tubulin preparations; purchased MP-Bioscience; host or cells: porcine brain (tubulin); GST-SET8 recombinant
Described as above. It is filed as biochemical, porcine. Particulars: at 100 μM (FIG. 5B lane 4); no LSF added. How it is done:
as §1

In data set [7] the test system is synchronized HCC cells. Description: Mitotic phenotypes in synchronized HCC cells. It is filed as cell-based. Particulars: cells synchronized at G1/S border, released in presence of 5 μM. On the procedure:
FIG. 4A is a graph showing tubulin polymerization assay in the presence of low concentrations of LSF (Millipore kit). FIG. 4B are bands showing co-immunoprecipitation of LSF with endogenous α-tubulin from HEK293T cells which was disrupted upon treatment with 2.5 μM FQI1 for 24 hr. FIG. 4C is a graph showing tubulin polymerization assay in the presence of FQI1 and FQI2 (Cytoskeleton kit). Nocodazole was used as a control to inhibit polymerization. […] Cells were synchronized at the G1/S border and released in presence of 5 μM FQI1. Fixed cells were stained with α-tubulin antibody and DAPI.

The target in data set [8] is T3, LSF-tubulin interaction (Homo sapiens, UniProt Q12800).
T3 construct: endogenous in cells; host or cells: HEK293T
T3 sequence (Q12800 whole entry): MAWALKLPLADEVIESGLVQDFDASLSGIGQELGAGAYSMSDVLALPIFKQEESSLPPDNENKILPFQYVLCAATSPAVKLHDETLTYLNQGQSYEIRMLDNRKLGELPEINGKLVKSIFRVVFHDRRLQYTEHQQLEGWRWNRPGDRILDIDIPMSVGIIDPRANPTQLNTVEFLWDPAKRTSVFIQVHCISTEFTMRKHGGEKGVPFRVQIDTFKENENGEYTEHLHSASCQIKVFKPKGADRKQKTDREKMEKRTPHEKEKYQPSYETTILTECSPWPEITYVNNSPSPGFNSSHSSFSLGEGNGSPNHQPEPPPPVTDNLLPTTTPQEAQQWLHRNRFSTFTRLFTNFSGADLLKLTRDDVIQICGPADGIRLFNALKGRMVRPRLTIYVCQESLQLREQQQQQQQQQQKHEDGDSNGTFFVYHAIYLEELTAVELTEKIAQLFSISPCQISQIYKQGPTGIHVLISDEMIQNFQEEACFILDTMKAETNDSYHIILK
Description: Co-immunoprecipitation of LSF with endogenous α-tubulin from HEK293T cells. The format is cell-based. Particulars: 2.5 μM for 24 hr. How it is done:
HEK293T, HeLa and COS7 cells were cultured in DMEM media supplemented with 10% FBS. FQI1 treatment of HEK293T cells was for 24 hours at 37° C. with 2.5 μM FQI1. Immunoprecipitation (IP) and immunofluorescence experiments were carried out as described previously. For the immunoprecipitation, 1 mg of total HEK293T cellular extract was incubated with 5 μg of either anti-SET8 antibody (Active Motif) or anti-LSF antibody (Millipore). The immunoprecipitates were blotted with anti-α tubulin, anti-β tubulin (Sigma T9026, T8328), anti-SET8 or anti-LSF (BD) antibodies as per the manufacturer's dilution recommendations. Cellular extracts were also immunoprecipitated with normal IgG (Cell Signaling Technology) as a negative control for all IP experiments.

Data set [9] deals with aggressive HCC cell line. Particulars: in vitro; cited from earlier work.
Data set [10] addresses T4, SET8 methylation of Histone H4 (Homo sapiens, UniProt Q9NQR1).
T4 construct: using full-length or overlapping segments of SET8 fused to GST; made in house; host or cells: E. coli
Description: In vitro methylation assay, SET8 methylation of Histone H4. The format is biochemical. Particulars: histone H4 as substrate (FIG. 5C). How it is done:
as §1

The structures appear in SMILES notation.

T2 sequence (M3V851 1-502): as the sequence (Q12800 whole entry) above, with T168N, S302P counted along it
T4 sequence (Q9NQR1 1-352 isoform Q9NQR1-2): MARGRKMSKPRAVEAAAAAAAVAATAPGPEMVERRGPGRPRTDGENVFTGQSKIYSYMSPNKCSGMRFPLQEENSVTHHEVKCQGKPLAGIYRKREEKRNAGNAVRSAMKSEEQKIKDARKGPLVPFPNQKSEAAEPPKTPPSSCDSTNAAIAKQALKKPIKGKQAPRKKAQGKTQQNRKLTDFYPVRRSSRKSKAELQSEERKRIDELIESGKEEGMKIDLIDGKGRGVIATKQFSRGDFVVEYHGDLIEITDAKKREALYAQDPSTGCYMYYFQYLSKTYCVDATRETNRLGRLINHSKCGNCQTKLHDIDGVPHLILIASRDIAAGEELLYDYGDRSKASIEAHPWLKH

As for `CCOc1ccccc1C1CC(=O)Nc2cc3c(cc21)OCO3` (stereo not drawn) [FQI1], in data set [1] (mouse HCC models), the “toxicity to normal tissues” value is reported as “no observable toxicity to normal tissues”. Also, the “tumor growth in mouse HCC models” value in data set [1] (multiple mouse HCC models) is listed as “significantly inhibits tumor growth”. Besides, the “chromosome and spindle phenotype (DNA and α-tubulin immunofluorescence)” value in data set [2] is “condensed, but nonaligned chromosomes and disrupted spindles”. The “effect on tubulin polymerization in vitro” value in data set [3] is recorded as “inhibited tubulin polymerization”. For the same molecule, in data set [4] (5 μM for 10 hours, then washout, 24 hours post release), the “reversibility of mitotic arrest after washout” value is “reversible”. For the same molecule, the multi-aster formation result in data set [4] (synchronized cells, short treatment prior to mitosis (FIG. 8C)) was “concentration-dependent increase in multi-aster formation”. In addition, the “effect on enhancement of tubulin methylation by exogenously added LSF” value in [5] was “inhibited the ability of exogenously added LSF to enhance methylation of tubulin by SET8”. Further, the “decrease of tubulin methylation by SET8” value in data set [6] is ~3 fold. For the same molecule, the mitotic phenotype entry in [7] is listed as “abnormal mitotic phenotypes”. Further, the “co-immunoprecipitation of LSF with endogenous α-tubulin” value in [8] is “disrupted”. Further, the “apoptosis in HCC cell line” value in data set [9] is “induces apoptosis”. In data set [10], the “effect on SET8 methylation of Histone H4” value was “does not affect”.

The record behind these values is US11420977B2, “Late SV40 (LSF) inhibitors” (Trustees of Boston University, priority 2018, dated 2022).
